Literature values, collected in PubChem BioAssay AID1259409 (Chemical Carcinogenesis Research Information System (CCRIS), 2018).

Test system: rodent chemically induced tumor inhibition, incidence and multiplicity
Assay: CCRIS tumor inhibitor studies

CC(C)C[C@H]1C(=O)N2CCC[C@H]2[C@]2(O)O[C@](NC(=O)[C@@H]3C=C4c5cccc6[nH]c(Br)c(c56)C[C@H]4N(C)C3)(C(C)C)C(=O)N12
tumour outcome (control, treated, inhibition, significance) (Carcinogen: 7,12-DIMETHYLBENZ[A]ANTHRACENE, 57-97-6, Dose [Inhibitor]: 0.4 MG/D FROM 90 TO 150 D OF AGE BEGINNING 30 D POST CARCINOGEN TREATMENT (STUDY DURATION: 9 MO AFTER DMBA TREATMENT), Route [Inhibitor]: SUBCUTANEOUS, Species: RAT, Strain/Sex: LONG-EVANS/FEMALE, Target Tissue: Type of Lesion: MAMMARY GLAND: CARCINOMA, Dose [Carcinogen]: 20 MG ONCE AT 60 D OF AGE, Promoter: NONE USED): 20%, 38%, -90%, not significant | tumour outcome (control, treated, inhibition, significance) (Carcinogen: 7,12-DIMETHYLBENZ[A]ANTHRACENE, 57-97-6, Dose [Inhibitor]: 0.4 MG/D FROM 90 TO 150 D OF AGE BEGINNING 30 D POST CARCINOGEN TREATMENT (STUDY DURATION: 9 MO AFTER DMBA TREATMENT), Route [Inhibitor]: SUBCUTANEOUS, Species: RAT, Strain/Sex: LONG-EVANS/FEMALE, Target Tissue: Type of Lesion: MAMMARY GLAND: FIBROADENOMA, Dose [Carcinogen]: 20 MG ONCE AT 60 D OF AGE, Promoter: NONE USED): 16%, 0%, 100%, not significant | tumour outcome (control, treated, inhibition, significance) (Carcinogen: 7,12-DIMETHYLBENZ[A]ANTHRACENE, 57-97-6, Dose [Inhibitor]: 0.4 MG/D FROM 90 TO 150 D OF AGE BEGINNING 30 D POST CARCINOGEN TREATMENT (STUDY DURATION: 9 MO AFTER DMBA TREATMENT), Route [Inhibitor]: SUBCUTANEOUS, Species: RAT, Strain/Sex: SPRAGUE-DAWLEY/FEMALE, Target Tissue: Type of Lesion: MAMMARY GLAND: CARCINOMA, Dose [Carcinogen]: 5 MG ONCE AT 60 D OF AGE, Promoter: NONE USED): 85%, 52%, 39%, p<0.05 | tumour outcome (control, treated, inhibition, significance) (Carcinogen: 7,12-DIMETHYLBENZ[A]ANTHRACENE, 57-97-6, Dose [Inhibitor]: 0.4 MG/D FROM 90 TO 150 D OF AGE BEGINNING 30 D POST CARCINOGEN TREATMENT (STUDY DURATION: 9 MO AFTER DMBA TREATMENT), Route [Inhibitor]: SUBCUTANEOUS, Species: RAT, Strain/Sex: SPRAGUE-DAWLEY/FEMALE, Target Tissue: Type of Lesion: MAMMARY GLAND: FIBROADENOMA, Dose [Carcinogen]: 5 MG ONCE AT 60 D OF AGE, Promoter: NONE USED): 22%, 10%, 54%, not significant | tumour outcome (control, treated, inhibition, significance) (Carcinogen: 7,12-DIMETHYLBENZ[A]ANTHRACENE, 57-97-6, Dose [Inhibitor]: 0.4 MG/D FROM 90 TO 150 D OF AGE BEGINNING 30 D POST CARCINOGEN TREATMENT (STUDY DURATION: 12 MO AFTER DMBA TREATMENT), Route [Inhibitor]: SUBCUTANEOUS, Species: RAT, Strain/Sex: SPRAGUE-DAWLEY/FEMALE, Target Tissue: Type of Lesion: MAMMARY GLAND: CARCINOMA, Dose [Carcinogen]: 1.25 MG ONCE AT 60 D OF AGE, Promoter: NONE USED): 15%, 10%, 33%, not significant | tumour outcome (control, treated, inhibition, significance) (Carcinogen: 7,12-DIMETHYLBENZ[A]ANTHRACENE, 57-97-6, Dose [Inhibitor]: 0.4 MG/D FROM 90 TO 150 D OF AGE BEGINNING 30 D POST CARCINOGEN TREATMENT (STUDY DURATION: 12 MO AFTER DMBA TREATMENT), Route [Inhibitor]: SUBCUTANEOUS, Species: RAT, Strain/Sex: SPRAGUE-DAWLEY/FEMALE, Target Tissue: Type of Lesion: MAMMARY GLAND: FIBROADENOMA, Dose [Carcinogen]: 1.25 MG ONCE AT 60 D OF AGE, Promoter: NONE USED): 73%, 65%, 11%, not significant | tumour outcome (control, treated, inhibition, significance) (Carcinogen: 7,12-DIMETHYLBENZ[A]ANTHRACENE, 57-97-6, Dose [Inhibitor]: 0.4 MG/D FROM 90 TO 150 D OF AGE BEGINNING POST CARCINOGEN TREATMENT (STUDY DURATION: 6 MO AFTER DMBA TREATMENT), Route [Inhibitor]: SUBCUTANEOUS, Species: RAT, Strain/Sex: SPRAGUE-DAWLEY/FEMALE, Target Tissue: Type of Lesion: MAMMARY GLAND: CARCINOMA, Dose [Carcinogen]: 20 MG ONCE AT 60 D OF AGE, Promoter: NONE USED): 96%, 87%, 9%, p<0.05 | tumour outcome (control, treated, inhibition, significance) (Carcinogen: 7,12-DIMETHYLBENZ[A]ANTHRACENE, 57-97-6, Dose [Inhibitor]: 0.4 MG/D FROM 93 TO 160 D OF AGE BEGINNING 30 D POST CARCINOGEN TREATMENT (STUDY DURATION: 9 MO AFTER DMBA TREATMENT), Route [Inhibitor]: SUBCUTANEOUS, Species: RAT, Strain/Sex: LEWIS/FEMALE, Target Tissue: Type of Lesion: MAMMARY GLAND: CARCINOMA, Dose [Carcinogen]: 10 MG AT 56 AND 63 D OF AGE, Promoter: NONE USED): 94%, 55%, 41%, p<0.05 | tumour outcome (control, treated, inhibition, significance) (Carcinogen: 7,12-DIMETHYLBENZ[A]ANTHRACENE, 57-97-6, Dose [Inhibitor]: 6 MG/KG 6/WK FOR 80 OR 100 D BEGINNING 1 D POST CARCINOGEN DOSE (STUDY DURATION: 245 D), Route [Inhibitor]: INTRAPERITONEAL, Species: RAT, Strain/Sex: CFE/FEMALE, Target Tissue: Type of Lesion: MAMMARY GLAND: NOT SPECIFIED, Dose [Carcinogen]: 2.5 MG 1/D FOR 2 D, Promoter: NONE USED): 17/18 (94%), 16/19 (84%), 11%, not significant | tumour outcome (control, treated, inhibition, significance) (Carcinogen: 17-BETA-ESTRADIOL, 50-28-2, Dose [Inhibitor]: 0.1 MG, DAILY WITH CARCINOGEN AT 1 MO OF AGE FOR 22 MO (STUDY DURATION: 22 MO), Route [Inhibitor]: SUBCUTANEOUS, Species: MOUSE, Strain/Sex: C3H/FEMALE, Target Tissue: Type of Lesion: MAMMARY GLAND: TUMOR, Dose [Carcinogen]: 0.5 MG/L IN DRINKING WATER DAILY CONCURRENTLY WITH INHIBITOR FOR 22 MO, Promoter: NONE USED): 27/99 (27%), 9/100 (9%), 67%, p<0.05 | tumour outcome (control, treated, inhibition, significance) (Carcinogen: 17BETA-ESTRADIOL, 50-28-2, Dose [Inhibitor]: 0.1 MG 1/D FOR 19 MO BEGINNING CONCURRENTLY WITH CARCINOGEN DOSE (STUDY DURATION: 19 MO), Route [Inhibitor]: SUBCUTANEOUS, Species: MOUSE, Strain/Sex: C3H/FEMALE, Target Tissue: Type of Lesion: MAMMARY GLAND: CARCINOMA, Dose [Carcinogen]: 0.5 MG/L IN DRINKING WATER BEGINNING AT 30 D OF AGE FOR 19 MO, Promoter: NONE USED): 27/99 (27%), 9/100 (9%), 67%, p<0.001 | tumour outcome (control, treated, inhibition, significance) (Carcinogen: AZOXYMETHANE, 25843-45-2, Dose [Inhibitor]: 0, 2 MG/KG BW SUSPENDED IN 1 ML/MG OLIVE OIL 1/2 D FOR STUDY DURATION (STUDY DURATION: 30 WK), Route [Inhibitor]: SUBCUTANEOUS, Species: RAT, Strain/Sex: WISTAR/MALE, Target Tissue: Type of Lesion: COLON: TUMOR, Dose [Carcinogen]: 7.4 MG/KG IN 0.9% NACL 1/WK FOR 10 WK): 9/17 (53%), 8/20 (40%), 25%, not significant | tumour outcome (control, treated, inhibition, significance) (Carcinogen: DIETHYLSTILBESTROL, 56-53-1, Dose [Inhibitor]: 0.5 MG 5/WK FOR 9 MO CONCURRENTLY WITH CARCINOGEN DOSE (90 MG TOTAL DOSE) (STUDY DURATION: 9 MO), Route [Inhibitor]: SUBCUTANEOUS, Species: HAMSTER, Strain/Sex: SYRIAN/MALE, Target Tissue: Type of Lesion: KIDNEY: EPITHELIAL NEOPLASM, Dose [Carcinogen]: 0.6 MG 3/WK FOR 9 MO (65 MG TOTAL DOSE), Promoter: NONE USED): 10/12 (83%), 7/12 (58%), 30%, not calculated | tumour outcome (control, treated, inhibition, significance) (Carcinogen: DIMETHYLBENZ[A]ANTHRACENE, 57-97-6, Dose [Inhibitor]: 1 MG ONCE ON D 2 OF DIESTRUS AND ONCE AT PROESTRUS (STUDY DURATION: 26 WK), Route [Inhibitor]: INTRAPERITONEAL, Species: RAT, Strain/Sex: SPRAGUE-DAWLEY/FEMALE, Target Tissue: Type of Lesion: MAMMARY GLAND: NOT SPECIFIED, Dose [Carcinogen]: 5 MG ONCE AT 50 D OF AGE 30 HR POST 1ST AGENT DOSE, Promoter: NONE USED): 97%, 84%, 13%, not significant
